Results reported in patent US10660877B2 (BRISTOL-MYERS SQUIBB COMPANY, priority 2016, dated 2020).
Where two headings read alike, the source gives them in different places.

Legend:
[1] = biological target: human TLR8 (Homo sapiens (Human), UniProt Q9NR97); assay: TLR8 inhibition reporter assay (HEK-Blue cells, SEAP reporter, R848 stimulation);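 also: compounds tested from 0.05 nM to 50 µM, 22 h at 37 °C, SEAP measured with HEK-Blue Detection, inhibition relative to agonist plus DMSO versus a known inhibitor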
[2] = biological target: human TLR9 (Homo sapiens (Human), UniProt Q9NR96); assay: TLR9 inhibition reporter assay (HEK-Blue cells, SEAP reporter, ODN2006 stimulation);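 also: compounds tested over 0.05 nM to 50 µM, 22 h incubation, inhibition taken as SEAP signal drop from agonist plus DMSO wells toward a known inhibitor control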
Method: TLR7/8/9 Inhibition Reporter Assays
(§1) Briefly, cells are seeded into Greiner 384 well plates (15000 cells per well for TLR7, 20,000 for TLR8 and 25,000 for TLR9) and then treated with test compounds in DMSO to yield a final dose response concentration range of 0.05 nM-50 μM. […] After a 22 hour incubation at 37° C., 5% CO2, SEAP levels are determined with the addition of HEK-Blue™ Detection reagent (Invivogen), a cell culture medium that allows for detection of SEAP, according to manufacturer's specifications. The percent inhibition is determined as the % reduction in the HEK-Blue signal present in wells treated with agonist plus DMSO alone compared to wells treated with a known inhibitor.

[3] = biological target: human TLR7 (Homo sapiens (Human), UniProt Q9NYK1); assay: TLR7 inhibition reporter assay (HEK-Blue cells, SEAP reporter, gardiquimod stimulation); type: cell-based
Method: TLR7/8/9 Inhibition Reporter Assays
as §1

[4] = read-out: TLR8 IC50, HEK-Blue cells overexpressing human TLR8, R848 15.9 μM
[5] = read-out: TLR9 IC50, HEK-Blue cells overexpressing human TLR9, ODN2006 5 nM
[6] = HEK-Blue cells overexpressing human TLR7, gardiquimod 7.5 μM
[7] = TLR8 IC50, HEK-Blue cells overexpressing human TLR8, R848 15.9 μM
[8] = TLR9 IC50, HEK-Blue cells overexpressing human TLR9, ODN2006 5 nM
[9] = read-out: TLR8 IC50, HEK-Blue cells, R848 15.9 μM
[10] = read-out: TLR9 IC50, HEK-Blue cells, ODN2006 5 nM
[11] = HEK-Blue cells, gardiquimod 7.5 μM

Sequence of human TLR8 (Q9NR97 27-1041): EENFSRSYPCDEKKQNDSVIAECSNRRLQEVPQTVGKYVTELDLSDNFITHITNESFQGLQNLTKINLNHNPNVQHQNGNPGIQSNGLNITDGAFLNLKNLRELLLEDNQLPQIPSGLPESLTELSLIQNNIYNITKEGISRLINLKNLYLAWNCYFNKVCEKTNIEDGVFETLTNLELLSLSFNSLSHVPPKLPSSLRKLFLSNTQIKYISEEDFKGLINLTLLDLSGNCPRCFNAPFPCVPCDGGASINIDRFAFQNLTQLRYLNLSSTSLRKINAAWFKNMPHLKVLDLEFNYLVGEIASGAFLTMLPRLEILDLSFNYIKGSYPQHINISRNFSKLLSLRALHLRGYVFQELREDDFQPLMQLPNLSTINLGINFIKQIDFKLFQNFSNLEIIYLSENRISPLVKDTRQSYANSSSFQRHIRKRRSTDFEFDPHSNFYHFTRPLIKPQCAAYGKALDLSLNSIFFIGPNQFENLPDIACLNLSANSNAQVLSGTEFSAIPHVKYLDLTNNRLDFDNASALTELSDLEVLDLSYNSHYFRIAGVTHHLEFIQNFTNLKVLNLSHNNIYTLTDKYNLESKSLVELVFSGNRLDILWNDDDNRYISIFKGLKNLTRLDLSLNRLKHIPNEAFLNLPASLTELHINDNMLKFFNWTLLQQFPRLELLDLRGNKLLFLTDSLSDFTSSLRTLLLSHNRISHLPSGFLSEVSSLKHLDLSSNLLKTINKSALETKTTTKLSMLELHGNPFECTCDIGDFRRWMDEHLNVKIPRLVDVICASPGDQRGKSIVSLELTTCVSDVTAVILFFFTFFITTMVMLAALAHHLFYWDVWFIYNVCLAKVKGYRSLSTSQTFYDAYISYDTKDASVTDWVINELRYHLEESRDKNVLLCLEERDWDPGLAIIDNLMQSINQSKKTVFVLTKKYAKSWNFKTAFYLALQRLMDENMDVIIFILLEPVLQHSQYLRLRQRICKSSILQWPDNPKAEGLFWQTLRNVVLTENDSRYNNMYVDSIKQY
Sequence of human TLR7 (Q9NYK1 27-1049): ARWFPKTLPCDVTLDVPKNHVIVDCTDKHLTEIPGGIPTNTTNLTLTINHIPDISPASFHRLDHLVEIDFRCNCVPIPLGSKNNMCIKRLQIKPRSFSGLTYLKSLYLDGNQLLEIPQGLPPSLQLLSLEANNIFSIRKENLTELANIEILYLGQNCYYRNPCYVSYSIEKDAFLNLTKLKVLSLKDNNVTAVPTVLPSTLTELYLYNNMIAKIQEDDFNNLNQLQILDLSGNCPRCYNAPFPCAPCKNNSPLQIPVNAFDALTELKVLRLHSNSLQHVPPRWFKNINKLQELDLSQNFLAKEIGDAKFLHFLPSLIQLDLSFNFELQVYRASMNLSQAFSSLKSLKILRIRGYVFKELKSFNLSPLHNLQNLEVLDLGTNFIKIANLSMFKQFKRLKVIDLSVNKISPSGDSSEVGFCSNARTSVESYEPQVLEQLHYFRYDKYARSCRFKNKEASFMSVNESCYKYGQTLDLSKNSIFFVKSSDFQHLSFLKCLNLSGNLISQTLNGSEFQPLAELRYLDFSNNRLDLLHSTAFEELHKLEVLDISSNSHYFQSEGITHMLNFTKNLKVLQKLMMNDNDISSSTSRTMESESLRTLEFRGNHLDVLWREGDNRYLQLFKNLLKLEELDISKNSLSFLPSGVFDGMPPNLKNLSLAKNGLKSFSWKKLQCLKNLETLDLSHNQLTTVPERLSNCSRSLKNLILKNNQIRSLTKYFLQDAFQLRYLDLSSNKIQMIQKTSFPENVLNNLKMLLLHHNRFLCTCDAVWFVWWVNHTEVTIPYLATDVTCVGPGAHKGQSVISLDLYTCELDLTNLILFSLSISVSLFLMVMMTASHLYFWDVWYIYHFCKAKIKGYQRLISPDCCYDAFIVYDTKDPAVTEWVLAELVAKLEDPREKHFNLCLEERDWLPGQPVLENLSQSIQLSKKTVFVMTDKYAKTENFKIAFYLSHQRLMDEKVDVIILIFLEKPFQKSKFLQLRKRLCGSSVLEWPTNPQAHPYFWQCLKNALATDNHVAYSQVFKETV
Sequence of human TLR9 (Q9NR96 26-1032): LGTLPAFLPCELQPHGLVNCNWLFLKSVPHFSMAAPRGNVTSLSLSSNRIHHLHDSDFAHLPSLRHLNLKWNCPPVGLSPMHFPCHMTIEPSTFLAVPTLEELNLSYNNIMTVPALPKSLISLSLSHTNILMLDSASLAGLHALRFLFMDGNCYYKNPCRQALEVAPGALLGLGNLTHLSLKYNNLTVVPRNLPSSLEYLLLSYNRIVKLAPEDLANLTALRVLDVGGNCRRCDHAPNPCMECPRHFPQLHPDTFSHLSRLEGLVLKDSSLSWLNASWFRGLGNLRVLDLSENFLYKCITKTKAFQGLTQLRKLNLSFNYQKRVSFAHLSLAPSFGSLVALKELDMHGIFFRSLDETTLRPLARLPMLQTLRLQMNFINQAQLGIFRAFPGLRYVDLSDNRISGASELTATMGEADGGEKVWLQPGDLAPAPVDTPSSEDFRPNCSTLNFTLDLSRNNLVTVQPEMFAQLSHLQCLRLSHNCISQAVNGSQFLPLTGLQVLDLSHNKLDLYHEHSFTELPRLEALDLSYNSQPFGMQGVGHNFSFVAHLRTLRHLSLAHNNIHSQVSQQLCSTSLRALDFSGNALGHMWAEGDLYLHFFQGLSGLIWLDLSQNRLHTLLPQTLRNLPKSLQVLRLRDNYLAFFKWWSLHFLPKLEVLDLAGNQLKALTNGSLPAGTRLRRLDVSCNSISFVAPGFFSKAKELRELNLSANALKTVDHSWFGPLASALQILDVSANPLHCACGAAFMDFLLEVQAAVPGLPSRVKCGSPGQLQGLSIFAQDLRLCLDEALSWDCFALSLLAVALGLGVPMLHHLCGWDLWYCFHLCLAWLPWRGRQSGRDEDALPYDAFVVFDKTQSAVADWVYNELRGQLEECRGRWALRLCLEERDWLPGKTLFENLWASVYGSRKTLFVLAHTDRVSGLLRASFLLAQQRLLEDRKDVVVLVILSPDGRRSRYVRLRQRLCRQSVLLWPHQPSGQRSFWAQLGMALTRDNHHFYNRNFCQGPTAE

| IC50 [1, 4] [µM] | IC50 [2, 5] [µM] | IC50 [3, 6] [µM] | IC50 [1, 7] [µM] | IC50 [2, 8] [µM] | IC50 [1, 9] [µM] | IC50 [2, 10] [µM] | IC50 [3, 11] [µM] | SMILES |
| --- | --- | --- | --- | --- | --- | --- | --- | --- |
| 0.0082 | 0.096 | 0.12 | – | – | – | – | – | CCc1c(-c2ccnc(C)c2)[nH]c2ccc(C3CCN(C[C@@H]4CCNC4)CC3)cc12 [Example 739, (R)-3-ethyl-2-(2-methylpyridin-4-yl)-5-(1-(pyrrolidin-3-ylmethyl)piperidin-4-yl)-1H-indole] |
| 0.0648 | 0.663 | 0.0681 | – | – | – | – | – | CCc1c(-c2ccnc(C)c2)[nH]c2ccc(C3CCN(C)CC3)cc12 [Example 670, 3-ethyl-5-(1-methylpiperidin-4-yl)-2-(2-methylpyridin-4-yl)-1H-indole] |
| 0.235 | 17.1 | 0.276 | – | – | – | – | – | CCc1c(-c2ccnc(C)c2)[nH]c2ccc(C3CCN(C(=O)c4ccnc(F)c4)CC3)cc12 [Example 592, (4-(3-ethyl-2-(2-methylpyridin-4-yl)-1H-indol-5-yl)piperidin-1-yl)(2-fluoropyridin-4-yl)methanone] |
| 0.0177 | 3.36 | 0.0083 | – | – | – | – | – | Cc1cc(-c2[nH]c3ccc(C4CCN(Cc5ncon5)CC4)cc3c2C(C)C)cc(C)n1 [Example 463, 3-((4-(2-(2,6-dimethylpyridin-4-yl)-3-isopropyl-1H-indol-5-yl)piperidin-1-yl)methyl)-1,2,4-oxadiazole] |
| – | – | – | – | – | 12.9 | 1.09 | 0.841 | CCc1c(-c2ccncc2)[nH]c2ccc(C3CCN(Cc4cnc(Nc5ccccn5)s4)CC3)cc12 [Example 822, 5-((4-(3-ethyl-2-(pyridin-4-yl)-1H-indol-5-yl)piperidin-1-yl)methyl)-N-(pyridin-2-yl)thiazol-2-amine] |
| – | – | – | – | – | 0.185 | 43.4 | 0.0426 | CC(=O)N1CCC(c2ccc3[nH]c(-c4ccnc(C)c4)c(C(C)C)c3c2)CC1 [Example 826, 1-(4-(3-isopropyl-2-(2-methylpyridin-4-yl)-1H-indol-5-yl)piperidin-1-yl)ethan-1-one] |
| 0.0092 | 0.122 | 0.0033 | – | – | – | – | – | Cc1cc(-c2[nH]c3ccc(C4CCNCC4)cc3c2C2CC2)cc(C)n1 [Example 93, 3-cyclopropyl-2-(2,6-dimethylpyridin-4-yl)-5-(piperidin-4-yl)-1H-indole] |
| 0.0229 | 0.876 | 0.0267 | – | – | – | – | – | Cc1cc(-c2[nH]c3ccc(C4CCN(C(=O)C5CCN(Cc6ccccc6)CC5)CC4)cc3c2C(C)C)ccn1 [Example 567, (1-benzylpiperidin-4-yl)(4-(3-isopropyl-2-(2-methylpyridin-4-yl)-1H-indol-5-yl)piperidin-1-yl)methanone] |
| – | – | – | – | – | 0.0734 | 0.313 | 0.124 | CNCCN1CCC(c2ccc3[nH]c(-c4ccnc(C)c4)c(C)c3c2)CC1 [Example 815, N-methyl-2-(4-(3-methyl-2-(2-methylpyridin-4-yl)-1H-indol-5-yl)piperidin-1-yl)ethan-1-amine] |
| 0.0312 | 1.1 | 0.112 | – | – | – | – | – | Cc1cc(-c2[nH]c3ccc(C4CCN(CCOc5ccccc5)CC4)cc3c2C(C)C)ccn1 [Example 663, 3-isopropyl-2-(2-methylpyridin-4-yl)-5-(1-(2-phenoxyethyl)piperidin-4-yl)-1H-indole] |
| 0.0376 | 12.4 | 0.0542 | – | – | – | – | – | Cc1cc(-c2[nH]c3ccc(C4CCN(Cc5nnc(C6CC6)o5)CC4)cc3c2C(C)C)c(F)cn1 [Example 698, 2-cyclopropyl-5-((4-(2-(5-fluoro-2-methylpyridin-4-yl)-3-isopropyl-1H-indol-5-yl)piperidin-1-yl)methyl)-1,3,4-oxadiazole] |
| 0.243 | 12.2 | 0.0809 | – | – | – | – | – | Cc1cc(-c2[nH]c3ccc(C4CCN(C(=O)C(C)(C)C#N)CC4)cc3c2C(C)C)ccn1 [Example 615, 3-(4-(3-isopropyl-2-(2-methylpyridin-4-yl)-1H-indol-5-yl)piperidin-1-yl)-2,2-dimethyl-3-oxopropanenitrile] |
| 0.0204 | 0.654 | 0.0069 | – | – | – | – | – | Cc1cc(-c2[nH]c3ccc(C4CCN(CC(=O)NCC5(C)CC5)CC4)cc3c2C(C)C)cc(C)n1 [Example 255, 2-(4-(2-(2,6-dimethylpyridin-4-yl)-3-isopropyl-1H-indol-5-yl)piperidin-1-yl)-N-((1-methylcyclopropyl)methyl)acetamide] |

More lines, now with the values behind:

| SMILES | IC50 [1, 4] [µM] | IC50 [2, 5] [µM] | IC50 [3, 6] [µM] | IC50 [1, 7] [µM] | IC50 [2, 8] [µM] | IC50 [1, 9] [µM] | IC50 [2, 10] [µM] | IC50 [3, 11] [µM] |
| --- | --- | --- | --- | --- | --- | --- | --- | --- |
| Cc1cc(-c2[nH]c3ccc(C4CCN(CC(=O)N5CCC(F)(F)C5)CC4)cc3c2C(C)C)cc(C)n1 [Example 216, 1-(3,3-difluoropyrrolidin-1-yl)-2-(4-(2-(2,6-dimethylpyridin-4-yl)-3-isopropyl-1H-indol-5-yl)piperidin-1-yl)ethan-1-one] | – | – | 0.0028 | 0.007 | 0.315 | – | – | – |
| Cc1cc(-c2[nH]c3ccc(C4CCN(C(C)C(=O)N(C)C)CC4)cc3c2CC(F)F)cc(C)n1 (stereo not drawn) [Example 493, 2-(4-(3-(2,2-difluoroethyl)-2-(2,6-dimethylpyridin-4-yl)-1H-indol-5-yl)piperidin-1-yl)-N,N-dimethylpropanamide] | 0.498 | 1.64 | 0.0845 | – | – | – | – | – |
| Cc1cc(-c2[nH]c3ccc(C4CCN(C(=O)CN(C)C5COC5)CC4)cc3c2C(C)C)cc(C)n1 [Example 416, 1-(4-(2-(2,6-dimethylpyridin-4-yl)-3-isopropyl-1H-indol-5-yl)piperidin-1-yl)-2-(methyl(oxetan-3-yl)amino)ethan-1-one] | 0.0497 | 4.76 | 0.0045 | – | – | – | – | – |
| Cc1cc(-c2[nH]c3ccc(C4CCNCC4)cc3c2C(C)C)c(N)cn1 [Example 10, 4-(3-isopropyl-5-(piperidin-4-yl)-1H-indol-2-yl)-6-methylpyridin-3-amine] | 0.0063 | 0.354 | 0.0051 | – | – | – | – | – |
| Cc1cc(-c2[nH]c3ccc(C4CCN(C(=O)CN5CCCC(O)C5)CC4)cc3c2C(C)C)cc(C)n1 (stereo not drawn) [Example 383, 1-(4-(2-(2,6-dimethylpyridin-4-yl)-3-isopropyl-1H-indol-5-yl)piperidin-1-yl)-2-(3-hydroxypiperidin-1-yl)ethan-1-one] | 0.0111 | 0.572 | 0.0017 | – | – | – | – | – |
| Cc1cc(-c2[nH]c3ccc(C4CCN(C(=O)CO)CC4)cc3c2C(C)C)cc(C)n1 [Example 116, 1-(4-(2-(2,6-dimethylpyridin-4-yl)-3-isopropyl-1H-indol-5-yl)piperidin-1-yl)-2-hydroxyethan-1-one] | – | – | 0.0034 | 0.127 | 32.2 | – | – | – |
| Cc1cc(-c2[nH]c3ccc(C4CCNCC4)cc3c2C(C)C)c(Br)c(C)n1 [Example 40, 2-(3-bromo-2,6-dimethylpyridin-4-yl)-3-isopropyl-5-(piperidin-4-yl)-1H-indole] | 0.0041 | 1.48 | 0.0165 | – | – | – | – | – |
| Cc1cc(-c2[nH]c3ccc(C4CCN(C(=O)CN(C(C)C)C(C)C)CC4)cc3c2C(C)C)cc(C)n1 [Example 153, 2-(diisopropylamino)-1-(4-(2-(2,6-dimethylpyridin-4-yl)-3-isopropyl-1H-indol-5-yl)piperidin-1-yl)ethan-1-one] | 0.026 | 0.675 | 0.0099 | – | – | – | – | – |
| COCCNCC(=O)N1CCC(c2ccc3[nH]c(-c4cc(C)nc(C)c4)c(C(C)C)c3c2)CC1 [Example 346, 1-(4-(2-(2,6-dimethylpyridin-4-yl)-3-isopropyl-1H-indol-5-yl)piperidin-1-yl)-2-((2-methoxyethyl)amino)ethan-1-one] | 0.0167 | 1.11 | 0.0043 | – | – | – | – | – |
| Cc1cc(-c2[nH]c3ccc(C4CCN(C(=O)C(=O)N5CCN(C)CC5)CC4)cc3c2C(C)C)cc(C)n1 [Example 856, 1-(4-(2-(2,6-dimethylpyridin-4-yl)-3-isopropyl-1H-indol-5-yl)piperidin-1-yl)-2-(4-methylpiperazin-1-yl)ethane-1,2-dione] | – | – | – | – | – | 0.0306 | 0.832 | 0.0029 |
| Cc1cc(-c2[nH]c3ccc(C4CCN(CC(=O)N(C)CC#N)CC4)cc3c2C(C)C)cc(C)n1 [Example 247, N-(cyanomethyl)-2-(4-(2-(2,6-dimethylpyridin-4-yl)-3-isopropyl-1H-indol-5-yl)piperidin-1-yl)-N-methylacetamide] | 0.004 | 0.462 | 0.003 | – | – | – | – | – |
| Cc1cc(-c2[nH]c3ccc(C4CCN(CC(=O)NCCC(C)O)CC4)cc3c2C(C)C)cc(C)n1 (stereo not drawn) [Example 262, 2-(4-(2-(2,6-dimethylpyridin-4-yl)-3-isopropyl-1H-indol-5-yl)piperidin-1-yl)-N-(3-hydroxybutyl)acetamide] | 0.006 | 0.715 | 0.002 | – | – | – | – | – |
| Cc1cc(-c2[nH]c3cc(F)c(C4CCNCC4)cc3c2C(C)C)c(C)cn1 [Example 80, 2-(2,5-dimethylpyridin-4-yl)-6-fluoro-3-isopropyl-5-(piperidin-4-yl)-1H-indole] | 0.0013 | 0.583 | 0.0027 | – | – | – | – | – |
| COc1ncc(CN(C)CC(=O)N2CCC(c3ccc4[nH]c(-c5cc(C)nc(C)c5)c(C(C)C)c4c3)CC2)cn1 [Example 418, 1-(4-(2-(2,6-dimethylpyridin-4-yl)-3-isopropyl-1H-indol-5-yl)piperidin-1-yl)-2-(((2-methoxypyrimidin-5-yl)methyl)(methyl)amino)ethan-1-one] | 0.0306 | 2.05 | 0.003 | – | – | – | – | – |
| Cc1cc(-c2[nH]c3ccc(C4CCN(C(=O)c5cccnc5)CC4)cc3c2C(C)C)cc(C)n1 [Example 112, (4-(2-(2,6-dimethylpyridin-4-yl)-3-isopropyl-1H-indol-5-yl)piperidin-1-yl)(pyridin-3-yl)methanone] | 0.0999 | 15.8 | 0.0062 | – | – | – | – | – |
